The source of these data is BindingDB's records for PubMed 2419545 (National Institutes of Health, 1986).

Positions count from the first letter of the chain named. Where “and” joins values, the source holds several entries; their conditions need not be identical. Equal values may be shown once. Residues, ends and D or L forms follow the SMILES beside them.

For one assay, the target named is Eledoisin (Eledone moschata, UniProt P62934).
In assay [1] the target is T1, Protachykinin-1 (Mus musculus, UniProt P41539).
T1 sequence (P41539 whole entry): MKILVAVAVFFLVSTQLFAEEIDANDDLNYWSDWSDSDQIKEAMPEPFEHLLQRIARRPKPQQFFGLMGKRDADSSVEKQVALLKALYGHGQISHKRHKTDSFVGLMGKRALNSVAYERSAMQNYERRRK

A further assay deals with T2, Substance-K receptor (Cavia porcellus, UniProt Q64077).
T2 sequence (Q64077 whole entry): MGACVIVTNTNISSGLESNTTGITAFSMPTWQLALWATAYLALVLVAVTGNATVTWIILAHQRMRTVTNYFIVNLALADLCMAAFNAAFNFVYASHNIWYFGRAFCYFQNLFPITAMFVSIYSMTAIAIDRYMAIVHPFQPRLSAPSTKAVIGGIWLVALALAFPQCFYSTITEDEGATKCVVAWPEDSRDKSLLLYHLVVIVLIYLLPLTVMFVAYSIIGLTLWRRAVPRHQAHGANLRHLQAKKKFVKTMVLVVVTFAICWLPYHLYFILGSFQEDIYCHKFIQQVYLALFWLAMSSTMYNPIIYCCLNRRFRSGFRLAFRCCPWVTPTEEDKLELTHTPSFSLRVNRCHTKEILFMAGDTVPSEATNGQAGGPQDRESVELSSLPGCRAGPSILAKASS

For assay [2], the target named is Class E basic helix-loop-helix protein 22 (Mus musculus, UniProt Q8C6A8).
The target in assay [3] is T3, Protachykinin-1 (Rattus norvegicus, UniProt P06767).
T3 sequence (P06767 whole entry): T1 sequence (P41539 whole entry) with D23G, V77I

In another assay the target is Substance P (Cavia porcellus, UniProt P67932).
Another assay has as its target T4, ATP synthase subunit a (Rattus norvegicus, UniProt P05504).
T4 sequence (P05504 whole entry): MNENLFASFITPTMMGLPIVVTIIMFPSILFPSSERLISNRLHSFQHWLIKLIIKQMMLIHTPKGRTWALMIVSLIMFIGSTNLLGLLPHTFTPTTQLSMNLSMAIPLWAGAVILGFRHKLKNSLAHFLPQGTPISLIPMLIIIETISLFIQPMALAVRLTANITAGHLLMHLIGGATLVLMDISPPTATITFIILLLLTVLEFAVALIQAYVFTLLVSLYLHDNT

Sequence of Class E basic helix-loop-helix protein 22 (Q8C6A8 whole entry): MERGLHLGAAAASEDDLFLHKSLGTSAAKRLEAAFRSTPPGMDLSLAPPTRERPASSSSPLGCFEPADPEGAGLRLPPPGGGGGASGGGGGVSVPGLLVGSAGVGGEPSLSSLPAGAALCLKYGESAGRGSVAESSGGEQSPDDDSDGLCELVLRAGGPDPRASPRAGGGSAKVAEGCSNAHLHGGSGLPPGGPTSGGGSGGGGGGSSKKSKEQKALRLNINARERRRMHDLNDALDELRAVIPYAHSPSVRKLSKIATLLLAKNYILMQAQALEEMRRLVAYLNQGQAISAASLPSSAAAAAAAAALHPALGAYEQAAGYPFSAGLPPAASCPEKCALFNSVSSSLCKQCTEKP

In the case of `CSCC[C@H](NC(=O)[C@H](CC(C)C)NC(=O)CNC(=O)[C@@H](NC(=O)[C@H](Cc1ccccc1)NC(=O)[C@H](CO)NC(=O)[C@H](CC(=O)O)NC(=O)[C@@H](NC(=O)[C@H](CCCCN)NC(=O)[C@@H](N)Cc1cnc[nH]1)[C@@H](C)O)C(C)C)C(N)=O` [Neurokinin alpha], the Ki at Eledoisin was 10 nM; on Protachykinin-1 [1], 1 nM and 4 nM; on Substance-K receptor, 1.3 nM; in assay [2], 0.5 nM; on Protachykinin-1 [3], 1.3 nM and 4.6 nM; on Substance P, 8 nM.
As to `CC[C@H](C)[C@H](NC(=O)[C@H](Cc1ccccc1)NC(=O)[C@H](C)NC(=O)[C@H](CC(=O)O)NC(=O)[C@H](CCCCN)NC(=O)[C@H](CO)NC(=O)[C@@H]1CCCN1C(=O)[C@@H]1CCC(=O)N1)C(=O)NCC(=O)N[C@@H](CC(C)C)C(=O)N[C@@H](CCSC)C(N)=O` (HELM PEPTIDE1{[Glp].P.S.K.D.A.F.I.G.L.M.[am]}$$$$V2.0), the inhibition constant (Ki) is 2.2 nM on Eledoisin; 9 nM and 5 nM on Protachykinin-1 [1]; 15 nM at Substance-K receptor; 4.2 nM and 3 nM at ATP synthase subunit a; 16 nM and 9 nM on Protachykinin-1 [3]; 9 nM at Substance P.
With H-DVPKSDQFVGLM-NH2 [CAS_45749], the Ki on Eledoisin was 2.6 nM; on Protachykinin-1 [1], 7 nM; at Substance-K receptor it was 11 nM; in assay [2] it was 0.5 nM; at ATP synthase subunit a it was 4.1 nM and 1.9 nM; at Protachykinin-1 [3], 6 nM and 9 nM. For the same compound, on Substance P, the affinity corresponds to a Ki of 9 nM.
For the compound `CSCC[C@H](NC(=O)[C@H](CC(C)C)NC(=O)CNC(=O)[C@H](Cc1ccc(O)cc1)NC(=O)[C@H](Cc1ccccc1)NC(=O)[C@H](CCCCN)NC(=O)[C@H](CC(N)=O)NC(=O)[C@@H]1CCCN1C(=O)[C@H](CC(=O)O)NC(=O)[C@H](C)NC(=O)[C@@H]1CCC(=O)N1)C(N)=O` [physalaemin] (HELM PEPTIDE1{[Glp].A.D.P.N.K.F.Y.G.L.M.[am]}$$$$V2.0), the Ki is 14 nM at Eledoisin; 175 nM on Protachykinin-1 [1]; 340 nM on Substance-K receptor; 17 nM in assay [2]; 23 nM and 30 nM on ATP synthase subunit a; 0.7 nM at Substance P.
On to `CSCC[C@H](NC(=O)[C@H](CC(C)C)NC(=O)CNC(=O)[C@@H](NC(=O)[C@H](Cc1ccccc1)NC(=O)[C@H](Cc1ccccc1)NC(=O)[C@H](CC(=O)O)NC(=O)[C@H](Cc1c[nH]cn1)NC(=O)[C@H](CCSC)NC(=O)[C@@H](N)CC(=O)O)C(C)C)C(N)=O` [NSC_5311312], for which the Ki on Eledoisin is 17 nM; on Protachykinin-1 [1], 20 nM and 80 nM; at Substance-K receptor it was 200 nM; in assay [2], 10 nM; at ATP synthase subunit a, 4.7 nM and 6 nM; on Protachykinin-1 [3] it was 50 nM and 56 nM. The Ki at Substance P was 35 nM.
Take `CSCC[C@H](NC(=O)[C@H](CC(C)C)NC(=O)CNC(=O)[C@H](Cc1ccccc1)NC(=O)[C@H](Cc1ccccc1)NC(=O)[C@H](CCC(N)=O)NC(=O)[C@H](CCC(N)=O)NC(=O)[C@@H]1CCCN1C(=O)[C@H](CCCCN)NC(=O)[C@@H]1CCCN1C(=O)[C@@H](N)CCCN=C(N)N)C(N)=O` [Arg-Pro-Lys-Pro-Gln-Gln-Phe-Phe-Gly-Leu-Met NH2]: the Ki was 19 nM at Eledoisin; 200 nM at Substance-K receptor; 47 nM in assay [2]; 106 nM and 21 nM at ATP synthase subunit a; 0.2 nM at Substance P.
